Reference: US20250032490A1, “THERAPEUTIC REGIMENS FOR TREATMENT OF PAROXYSMAL NOCTURNAL HEMOGLOBINURIA” (Achillion Pharmaceuticals, Inc., priority 2017, published 2025)

How the values were obtained:
[1] = test system: complement system alternative pathway; test: CAP Wieslab assay (CAP-mediated TCC production); type: biochemical, human; conditions: AP activity in vitro
[2] = test system: C3 fragment deposition on rabbit erythrocytes; test: C3 fragment deposition on rabbit erythrocytes (flow cytometry); type: cell-based; conditions: Oryctolagus cuniculus, Erythrocyte; 20% C5-depleted normal human serum; read-out: IC50, inhibition of C3 fragment deposition on rabbit erythrocytes
Protocol: Rabbit erythrocytes, C5-depleted normal human serum (C5-Dpl NHS), gelatin veronal buffer (GVB) without Ca^++ and Mg (GVB^0), 100 mM MgCl2+100 mM EGTA (MgEGTA) were obtained from Complement Technology Inc. (Tyler, TX). GVB^0·MgEGTA was prepared by mixing GVB^0 and 100 mM MgEGTA in a 9:1 ratio. FITC-conjugated anti-C3c antibody (cat#ab4212) and Alexa Fluor® 647-conjugated anti human CD59 antibody (cat#: ab187769) were purchased from Abcam (Cambridge, MA).
Reactions were incubated at 37° C. for 15 minutes, the reactions were quenched by addition of EDTA at a final concentration of 20 mM. Cells were stained with a FITC-conjugated anti-C3c antibody at a dilution of 1:200 and C3 fragment deposition on the surface of rabbit erythrocytes was assessed by flow cytometry with BD Accuri C6 cytometer (BD Biosciences, San Jose, CA). Forward and side scatter parameters were used to gate intact erythrocytes. Controls included cells labeled with FITC-conjugated antibody isotype control. IC50 values from each experiment were determined by curve-fitting of experimental data (the % C3 fragment-positive cells at increasing concentrations of inhibitor) to the four-parameter sigmoidal dose-response equation using non-linear regression analysis (Prism Software, GraphPad, La Jolla, CA).

[3] = Phase 2 study in PNH subjects: hemoglobin levels; type: in vivo, human; conditions: Compound 1 100 mg TID + IV eculizumab
Protocol: (§1) The starting dose of compound 1 is based upon group assignment. The Group 1 dose is 100mg three times daily (TID). The Group 2 dose is 150 mg TID. The Group 3 dose is 200 mg TID. The Group 4 dose will receive the optimal dose determined from Groups 1-3.
(§2) All doses are taken approximately 15-30 minutes after completion of a meal or snack.
(§3) This will be followed by a long-term extension phase.
(§4) 2 subjects in the first dose level of 100 mg TID have been completed and data collected through 4 weeks. Data collected include lactate dehydrogenase (LDH) levels, hemoglobin levels, reticulocytes, PNH red blood cells (Type III) percentage, C3 Fragment Deposition percentage, and bilirubin levels and their changes from baseline.
Free hemoglobin is a pharmacodynamic marker that is measured from blood drawn on Day 1, Week 1, Week 2, and Week 4 (FIGS. 14A & 14B and Table 16). Low levels of hemoglobin is a sign of hemolytic anemia.

C3 fragment deposition = test: Phase 2 study in PNH subjects: C3 fragment deposition percentage; type: in vivo, human
Protocol: C3 fragment deposition is measured using blood by flow cytometry that would be known to those of skill in the art. In a typical protocol, a blood sample is collected from eculizumab-treated PNH patients or healthy individuals. Erythrocytes are harvested by centrifugation, washed with PBS several times until the supernatant remains clear. C3 fragment deposition on the PNH erythrocytes membrane is measured by flow cytometry using FITC-conjugated anti-C3c, PE conjugated anti-CD47 and APC-conjugated anti-CD59 following dilution of reaction mixtures in FC buffer. Intact and fragmented PNH erythrocytes are identified by anti-CD47 (positive) and anti-CD59 (negative) staining C3 fragment deposition is assessed by anti-C3c staining.
as §1, §2, §3, §4
Measurement of C3 fragment deposition percentage is a pharmacodynamic marker that is measured by flow cytometry of subject plasma samples collected on Day 1, Week 2, and Week 4 (FIGS. 17A & 17B and Table 19). Uncontrolled C3 activation due to the absence of CD55 on red blood cells may result in opsonization of red blood cells, leading to clinically meaningful extravascular hemolysis.

[4] = test system: PNH Type III red blood cells; test: Phase 2 study in PNH subjects: PNH red blood cell (Type III) percentage; type: in vivo, human; conditions: Compound 1 100 mg TID + IV eculizumab
Protocol: as §1, §2, §3, §4
Measuring the percentage of PNH Type III red blood cells is a pharmacodynamic marker that is measured by flow cytometry, which provides information on cell size, shape, and percentage of a type of cell. This assay determines whether CD55 and CD59 are missing from the surface of red blood cells. These proteins help protect normal cells from hemolysis. PNH Type III cells are extremely sensitive to the complement system and hemolysis. PNH Type III cell percentage is measured from plasma drawn on Day 1, Week 2, and Week 4 (FIGS. 16A & 16B and Table 18).

rabbit erythrocytes = test: CAP-mediated hemolysis assay with rabbit erythrocytes; type: cell-based; conditions: Oryctolagus cuniculus, Erythrocyte; AP activity in vitro
[5] = subject 003-001, DAY 1 (baseline)
[6] = subject 003-002, DAY 1 (baseline)

CC(=O)c1nn(CC(=O)N2C[C@H](F)C[C@H]2C(=O)Nc2cccc(Br)n2)c2ccc(-c3cnc(C)nc3)cc12 [Compound 1, (2S,4R)-1-(2-(3-acetyl-5-(2-methylpyrimidin-5-yl)-1H-indazol-1-yl)acetyl)-N-(6-bromopyridin-2-yl)-4-fluoropyrrolidine-2-carboxamide]
IC50 [1]: 26 nM
IC50 [2]: 96 ± 21 nM
HEMOGLOBIN Observed [3, 5]: 5.0 g/dL
HEMOGLOBIN CFB (change from baseline) ([3]; subject 003-001, DAY 1): 0.0 g/dL
HEMOGLOBIN CFB (change from baseline) ([3]; subject 003-001, WEEK 1): 1.1 g/dL
HEMOGLOBIN Observed ([3]; subject 003-001, WEEK 1): 6.1 g/dL
HEMOGLOBIN CFB (change from baseline) ([3]; subject 003-001, WEEK 2): 2.0 g/dL
HEMOGLOBIN Observed ([3]; subject 003-001, WEEK 2): 7.0 g/dL
HEMOGLOBIN CFB (change from baseline) ([3]; subject 003-001, WEEK 4): 2.6 g/dL
HEMOGLOBIN Observed ([3]; subject 003-001, WEEK 4): 7.6 g/dL
HEMOGLOBIN Observed [3, 6]: 9.8 g/dL
HEMOGLOBIN CFB (change from baseline) ([3]; subject 003-002, DAY 1): 0.0 g/dL
HEMOGLOBIN CFB (change from baseline) ([3]; subject 003-002, WEEK 1): 1.4 g/dL
HEMOGLOBIN Observed ([3]; subject 003-002, WEEK 1): 11.2 g/dL
HEMOGLOBIN CFB (change from baseline) ([3]; subject 003-002, WEEK 2): 1.8 g/dL
HEMOGLOBIN Observed ([3]; subject 003-002, WEEK 2): 11.6 g/dL
HEMOGLOBIN CFB (change from baseline) ([3]; subject 003-002, WEEK 4): 2.9 g/dL
HEMOGLOBIN Observed ([3]; subject 003-002, WEEK 4): 12.7 g/dL
C3 FRAGMENT DEPOSITION (%) CFB (change from baseline) (C3 fragment deposition; PNH subject 003-001, DAY 1): 0.00%
C3 FRAGMENT DEPOSITION (%) Observed (C3 fragment deposition; PNH subject 003-001, DAY 1 (baseline), flow cytometry): 2.60%
C3 FRAGMENT DEPOSITION (%) CFB (change from baseline) (C3 fragment deposition; PNH subject 003-001, WEEK 2): −0.50%
C3 FRAGMENT DEPOSITION (%) Observed (C3 fragment deposition; PNH subject 003-001, WEEK 2, flow cytometry): 2.10%
C3 FRAGMENT DEPOSITION (%) CFB (change from baseline) (C3 fragment deposition; PNH subject 003-001, WEEK 4): −0.50%
C3 FRAGMENT DEPOSITION (%) Observed (C3 fragment deposition; PNH subject 003-001, WEEK 4, flow cytometry): 2.10%
C3 FRAGMENT DEPOSITION (%) CFB (change from baseline) (C3 fragment deposition; PNH subject 003-002, DAY 1): 0.00%
C3 FRAGMENT DEPOSITION (%) Observed (C3 fragment deposition; PNH subject 003-002, DAY 1 (baseline), flow cytometry): 4.20%
C3 FRAGMENT DEPOSITION (%) CFB (change from baseline) (C3 fragment deposition; PNH subject 003-002, WEEK 2): −3.10%
C3 FRAGMENT DEPOSITION (%) Observed (C3 fragment deposition; PNH subject 003-002, WEEK 2, flow cytometry): 1.10%
C3 FRAGMENT DEPOSITION (%) CFB (change from baseline) (C3 fragment deposition; PNH subject 003-002, WEEK 4): −3.10%
C3 FRAGMENT DEPOSITION (%) Observed (C3 fragment deposition; PNH subject 003-002, WEEK 4, flow cytometry): 1.10%
PNH RBC (TYPE III) Observed [4, 5]: 41%
PNH RBC (TYPE III) CFB (change from baseline) ([4]; subject 003-001, DAY 1): 0%
PNH RBC (TYPE III) CFB (change from baseline) ([4]; subject 003-001, WEEK 2): 21%
PNH RBC (TYPE III) Observed ([4]; subject 003-001, WEEK 2): 62%
PNH RBC (TYPE III) CFB (change from baseline) ([4]; subject 003-001, WEEK 4): 29%
PNH RBC (TYPE III) Observed ([4]; subject 003-001, WEEK 4): 70%
PNH RBC (TYPE III) Observed [4, 6]: 50%
PNH RBC (TYPE III) CFB (change from baseline) ([4]; subject 003-002, DAY 1): 0%
PNH RBC (TYPE III) CFB (change from baseline) ([4]; subject 003-002, WEEK 2): 10%
PNH RBC (TYPE III) Observed ([4]; subject 003-002, WEEK 2): 60%
PNH RBC (TYPE III) CFB (change from baseline) ([4]; subject 003-002, WEEK 4): 18%
PNH RBC (TYPE III) Observed ([4]; subject 003-002, WEEK 4): 68%
IC50 (rabbit erythrocytes): 27 nM
